# In PubChem BioAssay AID651729 (NMMLSC, 2012):
# Test system: AM2.2 cells FAP-GPR32, fluorogen binding, flow cytometry MCF
# Assay: fluorogen binding to FAP-tagged GPR32, dose response, counter-screen for beta2AR agonist internalization project, AM2.2 cells, flow cytometry, powder set 2 (AID 651729)
row,Compound,EC50 [nM]
1,CCOC(=O)c1ccc(NC(=O)Cn2nnc(-c3ccccc3)n2)cc1,134
2,CCOC(=O)c1ccc(NC(=O)COc2ccc(S(=O)(=O)N3CCCC3)cc2)cc1,124
3,CC(=O)Nc1ccc(S(=O)(=O)NCCc2csc(-c3cccnc3)n2)cc1,11
4,CN(CC(=O)N1CCN(c2ccccn2)CC1)S(=O)(=O)c1ccc(Cl)cc1,5.23
